Measurements from US20250228850A1, “COMBINATION OF A CXCR7 ANTAGONIST WITH AN S1P1 RECEPTOR MODULATOR” (Idorsia Pharmaceuticals Ltd., priority 2019, published 2025).

Assays:
MOG-induced EAE mice [1] = assay: Monotherapy efficacy experiment in MOG-induced EAE model (preventive setting); format: in vivo, mouse (C57BL/6)
Description: Female C57BL/6 mice are immunized with an emulsion of MOG in complete Freund's adjuvant (CFA) and pertussis toxin (day 0). A total of 150 μg of MOG is injected per mice at two sites subcutaneously in each flank of the abdomen. Mice are injected intraperitoneally with pertussis toxin a second time, 2 days after the first injection (day 2). Within 9 to 14 days, mice develop signs of paralysis which will be graded on a scale from 0 to 5 assessing the tail and limbs defined as: 0=no clinical sign of EAE, 0.5=end tail paralyzed or one limb weakness, 1=tail paralyzed or two limbs weakness, 1.5=tail paralyzed and one hind limb weakness, 2=tail paralyzed and bilateral partial hind limb paralysis, 2.5=tail paralyzed and unilateral complete hind limb paralysis, 2.75=score of 2.5+unilateral partial hind limb paralysis, 3=complete bilateral hind limb paralysis, 3.25=3+unilateral partial forelimb paralysis, 3.5=3+unilateral complete forelimb paralysis, 4=complete paralysis (moribund) and, 5=death or euthanized.
The disease progression follows a chronic progressive course with no remission.
It consists of four treatment groups: • 1. Vehicle (water) b.i.d., from day 0 • 2.
Clinical scores are assessed on a daily basis and disease development is compared between vehicle-treated mice and mice receiving COMPOUND. The cumulative disease score is calculated for each mouse by summing all the daily clinical scores over the 29-days study period. The experiment is terminated at day 29, 1 to 4 hours post dosing. […] CXCL12 plasma concentrations are determined using a commercial quantikine ELISA mouse CXCL12/SDF1c kit from R&D systems, according to manufacturer's instructions.
Groups of 10 mice are dosed orally starting at the day of disease induction (day 0). It consists of two treatment groups: • 1. Vehicle (0.5% Methylcellulose/0.5% Tween® 80) b.i.d., from day 0 • 2. Fingolimod (0.03 mg/kg) q.d.+Vehicle q.d., from day 0
Clinical scores are assessed on a daily basis and disease development is compared between vehicle-treated mice and mice receiving fingolimod. The cumulative disease score is calculated for each mouse by summing all the daily clinical scores over the 27-days study period. The experiment is terminated at day 27.

[2] = tested on: lymphocyte count in peripheral blood; assay: Dose finding of fingolimod in healthy mice, lymphocyte count in peripheral blood; format: in vivo, mouse (C57BL/6)
Description: In parallel to the measurement of target engagement of COMPOUND, a second pilot experiment is performed. Healthy female C57BL/6 receive fingolimod at different doses in the range from 0.01 to 0.3 mg/kg, once daily (q.d.). The goal is to assess the dose-effect relationship of fingolimod on lymphocyte count in peripheral blood (which is an established biomarker to monitor pharmacological activity of S1P1 receptor modulators) in this strain of mouse over 24 h.

patients = settings: cited from earlier work
[3] = tested on: cuprizone-induced demyelination mice; assay: Cuprizone-induced demyelination model with cuprizone withdrawal, Experiment 2; format: in vivo, mouse (C57BL/6); settings: week 5 to week 7; COMPOUND 100 mg/kg b.i.d., fingolimod 0.3 mg/kg q.d.
Description: Male C57BL/6 mice are exposed to a 0.2% cuprizone diet for six weeks and then switched to control food for one more week. Groups of 8-9 mice are dosed orally starting after five weeks of cuprizone exposure. It consists of three treatment groups: • 1. Vehicle (0.5% Methylcellulose/0.5% Tween® 80) b.i.d., from week 5 to week 7 • 2. Fingolimod (0.3 mg/kg) q.d.+Vehicle q.d., from week 5 to week 7 • 3. […] Hematology parameters, including lymphocyte count, are measured at the termination of the experiment, one hour after the last dosing. […] Brain samples are isolated and fixed for histopathological and immunohistochemistry examinations to assess the degree of demyelination (Luxol Fast Blue for myelin staining).

MOG-induced EAE mice [4] = assay: Combination efficacy experiment in the MOG-induced EAE model (therapeutic setting); format: in vivo, mouse (C57BL/6)
Description: The combination efficacy experiment is performed in the same mouse EAE model as described for the pilot experiments.
Groups of 10 mice are dosed orally starting just before the onset of disease (day 7). It consists of four treatment groups: • 1. Vehicle (0.5% Methylcellulose/0.5% Tween® 80) b.i.d., from day 7 • 2. Fingolimod (0.03 mg/kg) q.d.+Vehicle q.d., from day 7 • 3.
Clinical scores are assessed on a daily basis and disease development is compared between vehicle-treated mice and mice receiving the different treatments. The experiment is terminated at day 16 or day 17. Hematology parameters, including lymphocyte count, are measured at the termination of the experiment. […] CXCL12 plasma concentrations are determined using a commercial quantikine ELISA mouse CXCL12/SDF1c kit from R&D systems, according to manufacturer's instructions.

[5] = tested on: lymphocyte count in peripheral blood; assay: Dose finding of siponimod in healthy SJL/J mice, alone and with COMPOUND; format: in vivo, mouse (SJL/J); settings: siponimod 0.3 mg/kg q.d. oral, healthy female SJL/J mice
Description: In a pilot experiment, healthy female SJL/J mice are dosed orally for 2 to 3 days with siponimod at different doses in the range from 0.03 to 1 mg/kg, once daily. The goal is to assess the dose-effect relationship of siponimod on lymphocyte count in peripheral blood (which is an established biomarker to monitor pharmacological activity of S1P1 receptor modulators) in this strain of mouse over 24 h.

Structure (SMILES) | plasma CXCL12 levels (MOG-induced EAE mice [1]; fingolimod 0.03 mg/kg q.d. from day 0) | overall extent of EAE disease, cumulative disease scores over the 27-days study (MOG-induced EAE mice [1]; fingolimod 0.03 mg/kg q.d. oral from day 0 (preventive)) | lymphocyte count reduction over 24 h ([2]; fingolimod 0.03 mg/kg q.d., healthy female C57BL/6) | lymphocyte count reduction over 24 hours ([2]; fingolimod 0.3 mg/kg q.d.) | time for lymphocyte counts to return to the normal range after stopping therapy (patients; fingolimod, human) | time remaining in the blood with pharmacodynamic effects (decreased lymphocyte counts) following the last dose (patients; fingolimod, human) | spontaneous remyelination in the corpus callosum one week after CPZ withdrawal [3] | lymphocyte count in peripheral blood (MOG-induced EAE mice [4]; fingolimod 0.03 mg/kg q.d. from day 7, at termination) | efficacy on the clinical scores of the disease (MOG-induced EAE mice [4]; from day 7 (just before onset), COMPOUND 100 mg/kg b.i.d., fingolimod 0.03 mg/kg q.d., combination effect from day 14 onwards) | lymphocyte count reduction over 24 h [5] | persistence of residual pharmacodynamics effects (lowering of peripheral lymphocyte count) after the last dose (patients; siponimod, human) | time remaining in the blood after stopping therapy (patients; siponimod, human) | patients whose lymphocyte counts returned to the normal range (patients; siponimod, within 10 days of stopping therapy)
CCCCCCCCc1ccc(CCC(N)(CO)CO)cc1 [fingolimod, 2-amino-2-[2-(4-octylphenyl)ethyl]-propane-1,3-diol, reference compound] | not associated with an increase | exhibits efficacy | partial efficacy | fully efficacious | 1-2 months | up to 2 months | no effect | reduction | minimal | – | – | – | –
CCc1cc(/C(C)=N/OCc2ccc(C3CCCCC3)c(C(F)(F)F)c2)ccc1CN1CC(C(=O)O)C1 [siponimod, 1-(4-[1-[(E)-4-Cyclohexyl-3-trifluoromethyl-benzyloxyimino]-ethyl]-2-ethyl-benzyl)-azetidine-3-carboxylic acid] | – | – | – | – | – | – | – | – | – | full efficacy | 3-4 weeks | up to 10 days | 90 % of patients
